In PMC5623904, “Structural investigation of nucleophosmin interaction with the tumor suppressor Fbw7γ” (Oncogenesis, 2017):
Like-named read-outs stand apart in the source and are kept apart here. Peptide text beside a SMILES is read from it. * marks the point of attachment. Dansyl = CN(C)c1cccc2c(S(=O)(=O)*)cccc12

Experiments:
Assay type in all cases: binding
[1] = molecular target: T1, Nter-NPM1 (residues 16-123) (Homo sapiens, UniProt P06748); assay: Equilibrium fluorescence titration of dansylated peptide with Nter-NPM1; conditions: for Nter-NPM1 KD: wild-type Nter-NPM1, N-terminally dansylated peptide 5 μM, protein 0 to 200/400 μM, sodium phosphate 20 mM pH 7.2, 25 °C, fluorescence ex 330 nm, triplicate, ±s.d., Ni = no interaction
T1 construct: inferred from pET28a NdeI/BamHI cloning and HisTrap purification) (N); made in house; host or cells: Escherichia coli BL21(DE3)
T1 sequence (P06748 16-123): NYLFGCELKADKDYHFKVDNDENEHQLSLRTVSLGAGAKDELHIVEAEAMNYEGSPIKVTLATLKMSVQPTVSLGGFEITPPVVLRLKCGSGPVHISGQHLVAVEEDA
Procedure: (§1) All experiments were performed at 25 °C in sodium phosphate buffer 20 mM pH 7.2, or in sodium phosphate buffer 20 mM plus 100 mM NaCl pH 7.2 (which sets ionic strength to 150 mM), using a FluoroMax-4 spectrofluorometer (Jobin Yvon, Edison, NJ, USA), equipped with a water bath apparatus. Fbw7γ and CENP-W peptides, functionalized with a dansyl (5-dimetilamminonaftalen-1-sulphonyl) group at their N terminus, were purchased from JPT (Germany). Tat peptide was synthesized employing the solid phase method following standard Fmoc strategies and labeled with dansyl fluorophore at its N terminus. Crude product was purified by RP-HPLC applying a linear gradient of 0.1% TFA CH3CN in 0.1% TFA water from 5% to 65% over 12 min using a semi-preparative 2.2 × 5 cm C18 column at a flow rate of 20 ml/min. Purity and identity were confirmed by LC–MS analysis.
(§2) Titration experiments were conducted with an excitation wavelength of 330 nm while the fluorescence emission spectra were collected in the range between 350 and 650 nm. Titrations were performed at constant peptide concentration (5 μM) and varying protein concentrations (from 0 to 200/400 μM). Titrations were performed in triplicate and data, analyzed with the Graphpad Prism software (https://www.graphpad.com/scientific-software/prism/), were reported as dissociation constant±s.d.
(§3) Equilibrium binding curves were fitted to the standard quadratic equation: […]
(§4) where F is the observed fluorescence signal, n and [A]0 are the total concentration of non-varied and varied species, respectively, and KD is the equilibrium dissociation constant. B and C are constants taking into account the total fluorescence change and fluorescence at [A]0=0, respectively, and k is a term describing the slope of the curve at high protein concentration. Whenever possible, under pseudo first-order conditions, the equation 1 was simplified to: […]

[2] = molecular target: T2, Nter-NPM1 D36A-E39A-E93A-E121A (Homo sapiens, UniProt P06748, D36A/E121A/E39A/E93A); assay: Equilibrium fluorescence titration, Nter-NPM1 quadruple mutant (E121A); conditions: dansylated peptide 5 μM; sodium phosphate 20 mM pH 7.2, 25 °C; triplicate, ±s.d.
T2 construct: inferred from pET28a NdeI/BamHI cloning and HisTrap purification) (N); made in house; host or cells: Escherichia coli BL21(DE3)
T2 sequence (P06748 16-123 D36A/E39A/E93A/E121A): as the sequence (P06748 16-123) above, with D21A, E24A, E78A, E106A counted along it
Procedure: (§5) Nter-NPM1 mutants were obtained by site-directed mutagenesis using the Quickchange II Lightning Site-Directed Mutagenesis kit (Stratagene, La Jolla, CA, USA), following manufacturer’s instructions. Oligonucleotides used for PCR were obtained from Primm Biotech (Milan, Italy). Forward oligonucleotides used are reported in Supplementary Table 2.
as §1
Titration experiments were conducted with an excitation wavelength of 330 nm while the fluorescence emission spectra were collected in the range between 350 and 650 nm. Titrations were performed at constant peptide concentration (5 μM) and varying protein concentrations (from 0 to 200/400 μM). Titrations were performed in triplicate and data, analyzed with the Graphpad Prism software (https://www.graphpad.com/scientific-software/prism/), were reported as dissociation constant±s.d. […]
(§6) where F is the observed fluorescence signal, n and [A]0 are the total concentration of non-varied and varied species, respectively, and KD is the equilibrium dissociation constant. B and C are constants taking into account the total fluorescence change and fluorescence at [A]0=0, respectively, and k is a term describing the slope of the curve at high protein concentration. […]

[3] = molecular target: T3, Nter-NPM1 D36A-E37A-E39A-E93A (Homo sapiens, UniProt P06748, D36A/E37A/E39A/E93A); assay: Equilibrium fluorescence titration, Nter-NPM1 quadruple mutant (E37A); conditions: dansylated peptide 5 μM
T3 construct: inferred from pET28a NdeI/BamHI cloning and HisTrap purification) (N); made in house; host or cells: Escherichia coli BL21(DE3)
T3 sequence (P06748 16-123 D36A/E37A/E39A/E93A): as the sequence (P06748 16-123) above, with D21A, E22A, E24A, E78A counted along it
Procedure: as §5, §1, §2, §3, §4

[4] = molecular target: T4, Nter-NPM1 D36A-E37A-E39A-E93A-E121A (Homo sapiens, UniProt P06748, D36A/E121A/E37A/E39A/E93A); assay: Equilibrium fluorescence titration, Nter-NPM1 quintuple mutant; conditions: dansylated peptide 5 μM; for Kd: sodium phosphate 20 mM pH 7.2, 25 °C, triplicate, ±s.d.
T4 construct: inferred from pET28a NdeI/BamHI cloning and HisTrap purification) (N); made in house; host or cells: Escherichia coli BL21(DE3)
T4 sequence (P06748 16-123 D36A/E37A/E39A/E93A/E121A): as the sequence (P06748 16-123) above, with D21A, E22A, E24A, E78A, E106A counted along it
Procedure: as §5, §1, §2, §3, §4

Nter-NPM1 D36A-E39A-E93A = molecular target: T5, Nter-NPM1 D36A-E39A-E93A (Homo sapiens, UniProt P06748, D36A/E39A/E93A); assay: Equilibrium fluorescence titration, Nter-NPM1 triple mutant; conditions: dansylated peptide 5 μM
T5 construct: inferred from pET28a NdeI/BamHI cloning and HisTrap purification) (N); made in house; host or cells: Escherichia coli BL21(DE3)
T5 sequence (P06748 16-123 D36A/E39A/E93A): as the sequence (P06748 16-123) above, with D21A, E24A, E78A counted along it
Procedure: as §5, §1, §2, §3, §4

Nter-NPM1 E93A = molecular target: T6, Nter-NPM1 E93A (Homo sapiens, UniProt P06748, E93A); assay: Equilibrium fluorescence titration, Nter-NPM1 E93A mutant; conditions: dansylated peptide 5 μM; sodium phosphate 20 mM pH 7.2, 25 °C; triplicate, ±s.d.
T6 construct: inferred from pET28a NdeI/BamHI cloning and HisTrap purification) (N); made in house; host or cells: Escherichia coli BL21(DE3)
T6 sequence (P06748 16-123 E93A): as the sequence (P06748 16-123) above, with E78A counted along it
Procedure: as §5
(§7) All experiments were performed at 25 °C in sodium phosphate buffer 20 mM pH 7.2, or in sodium phosphate buffer 20 mM plus 100 mM NaCl pH 7.2 (which sets ionic strength to 150 mM), using a FluoroMax-4 spectrofluorometer (Jobin Yvon, Edison, NJ, USA), equipped with a water bath apparatus. […]
(§8) Titration experiments were conducted with an excitation wavelength of 330 nm while the fluorescence emission spectra were collected in the range between 350 and 650 nm. […] Titrations were performed in triplicate and data, analyzed with the Graphpad Prism software (https://www.graphpad.com/scientific-software/prism/), were reported as dissociation constant±s.d. […]
as §6

Nter-NPM1 E39A-E93A = molecular target: T7, Nter-NPM1 E39A-E93A (Homo sapiens, UniProt P06748, E39A/E93A); assay: Equilibrium fluorescence titration, Nter-NPM1 E39A-E93A mutant; conditions: dansylated peptide 5 μM; sodium phosphate 20 mM pH 7.2, 25 °C; triplicate, ±s.d.
T7 construct: inferred from pET28a NdeI/BamHI cloning and HisTrap purification) (N); made in house; host or cells: Escherichia coli BL21(DE3)
T7 sequence (P06748 16-123 E39A/E93A): as the sequence (P06748 16-123) above, with E24A, E78A counted along it
Procedure: as §5, §7, §8, §6

Nter-NPM1 E121A = molecular target: T8, Nter-NPM1 E121A (Homo sapiens, UniProt P06748, E121A); assay: Equilibrium fluorescence titration, Nter-NPM1 E121A mutant; conditions: dansylated peptide 5 μM; sodium phosphate 20 mM pH 7.2, 25 °C; triplicate, ±s.d.
T8 construct: inferred from pET28a NdeI/BamHI cloning and HisTrap purification) (N); made in house; host or cells: Escherichia coli BL21(DE3)
T8 sequence (P06748 16-123 E121A): as the sequence (P06748 16-123) above, with E106A counted along it
Procedure: as §5, §7, §8, §6

Nter-NPM1 E37A = molecular target: T9, Nter-NPM1 E37A (Homo sapiens, UniProt P06748, E37A); assay: Equilibrium fluorescence titration, Nter-NPM1 E37A mutant; conditions: dansylated peptide 5 μM; sodium phosphate 20 mM pH 7.2, 25 °C; triplicate, ±s.d.
T9 construct: inferred from pET28a NdeI/BamHI cloning and HisTrap purification) (N); made in house; host or cells: Escherichia coli BL21(DE3)
T9 sequence (P06748 16-123 E37A): as the sequence (P06748 16-123) above, with E22A counted along it
Procedure: as §5, §7, §8, §6

Nter-NPM1 E39A = molecular target: T10, Nter-NPM1 E39A (Homo sapiens, UniProt P06748, E39A); assay: Equilibrium fluorescence titration, Nter-NPM1 E39A mutant; conditions: dansylated peptide 5 μM; sodium phosphate 20 mM pH 7.2, 25 °C; triplicate, ±s.d.
T10 construct: inferred from pET28a NdeI/BamHI cloning and HisTrap purification) (N); made in house; host or cells: Escherichia coli BL21(DE3)
T10 sequence (P06748 16-123 E39A): as the sequence (P06748 16-123) above, with E24A counted along it
Procedure: as §5, §7, §8, §6

Nter-NPM1 D36A = molecular target: T11, Nter-NPM1 D36A (Homo sapiens, UniProt P06748, D36A); assay: Equilibrium fluorescence titration, Nter-NPM1 D36A mutant; conditions: dansylated peptide 5 μM; sodium phosphate 20 mM pH 7.2, 25 °C; triplicate, ±s.d.
T11 construct: inferred from pET28a NdeI/BamHI cloning and HisTrap purification) (N); made in house; host or cells: Escherichia coli BL21(DE3)
T11 sequence (P06748 16-123 D36A): as the sequence (P06748 16-123) above, with D21A counted along it
Procedure: as §5, §7, §8, §6

Nter-NPM1 D36A-E93A = molecular target: T12, Nter-NPM1 D36A-E93A (Homo sapiens, UniProt P06748, D36A/E93A); assay: Equilibrium fluorescence titration, Nter-NPM1 D36A-E93A mutant; conditions: dansylated peptide 5 μM; sodium phosphate 20 mM pH 7.2, 25 °C; triplicate, ±s.d.
T12 construct: inferred from pET28a NdeI/BamHI cloning and HisTrap purification) (N); made in house; host or cells: Escherichia coli BL21(DE3)
T12 sequence (P06748 16-123 D36A/E93A): as the sequence (P06748 16-123) above, with D21A, E78A counted along it
Procedure: as §5, §7, §8, §6

Nter-NPM1 D36A-E39A = molecular target: T13, Nter-NPM1 D36A-E39A (Homo sapiens, UniProt P06748, D36A/E39A); assay: Equilibrium fluorescence titration, Nter-NPM1 D36A-E39A mutant; conditions: dansylated peptide 5 μM; sodium phosphate 20 mM pH 7.2, 25 °C; triplicate, ±s.d.
T13 construct: inferred from pET28a NdeI/BamHI cloning and HisTrap purification) (N); made in house; host or cells: Escherichia coli BL21(DE3)
T13 sequence (P06748 16-123 D36A/E39A): as the sequence (P06748 16-123) above, with D21A, E24A counted along it
Procedure: as §5, §7, §8, §6

[5] = sodium phosphate 20 mM pH 7.2, 25 °C, triplicate, ±s.d., read-out: KD, D36A-E37A-E39A-E93A
[6] = sodium phosphate 20 mM pH 7.2, 25 °C, triplicate, ±s.d., read-out: KD, D36A-E39A-E93A

Compound | Nter-NPM1 KD [1] | Kd [2] | Kd [3, 5] | Kd [4] | Kd (Nter-NPM1 D36A-E39A-E93A; [6]) | Kd ([1]; SD, read-out: Nter-NPM1 KD) | also measured
VLSQK [Unreleted short, reference compound] | Ni | – | – | – | – | – | Nter-NPM1 KD ([1]; listed as unrelated short): No interaction
CC(C)C[C@H](NC(=O)[C@H](Cc1ccccc1)NC(=O)CNC(=O)[C@H](CCCNC(=N)N)NC(=O)[C@@H]1CCCN1C(=O)[C@H](C)NC(=O)[C@H](CCCCN)NC(=O)[C@H](CCCNC(=N)N)NC(=O)[C@H](CCCCN)NS(=O)(=O)c1cccc2c(N(C)C)cccc12)C(=O)N[C@@H](CCCCN)C(=O)N[C@@H](CCCNC(=N)N)C(=O)N[C@H](C(=O)N[C@@H](Cc1ccccc1)C(=O)N[C@@H](CCCCN)C(=O)N[C@@H](CCCNC(=N)N)C(=O)N[C@@H](CCCCN)C(=O)N[C@@H](CCCCN)C(=O)O)C(C)C [CENP-W*] (Dansyl-KRKAPRGFLKRVFKRKK-OH) | – | 82.8 ± 5.6 µM | 71.4 ± 9.1 µM | 734 ± 158 µM | 18.4 ± 2.6 µM | 6.2 ± 0.9 µM | –
DDEAQTLAKFVLSQK [Unrelated long, reference compound] | Ni | – | – | – | – | – | Nter-NPM1 KD ([1]; listed as unrelated long): No interaction
CSCC[C@H](NC(=O)[C@H](CCCNC(=N)N)NC(=O)[C@H](CCCNC(=N)N)NC(=O)[C@H](CCCNC(=N)N)NC(=O)[C@H](CS)NC(=O)[C@H](Cc1ccccc1)NC(=O)[C@@H]1CCCN1C(=O)[C@H](CC(C)C)NS(=O)(=O)c1cccc2c(N(C)C)cccc12)C(=O)N[C@@H](CCCCN)C(=O)N[C@@H](CCCNC(=N)N)C(=O)N[C@@H](CCCCN)C(=O)N[C@@H](CC(C)C)C(=O)N[C@@H](CC(=O)O)C(=O)N[C@@H](Cc1c[nH]cn1)C(=O)O [Fbw7γ*] (Dansyl-LPFCRRRMKRKLDH-OH) | – | 224 ± 35.9 µM | 151 ± 20.5 µM | 654 ± 46.9 µM | 22 ± 3 µM | 3.2 ± 0.6 µM | Kd ([3]; sodium phosphate 20 mM plus 100 mM NaCl pH 7.2 (ionic strength 150 mM), 25 °C, read-out: KD 100mM NaCl, D36A-E37A-E39A-E93A): 158 ± 12.3 µM; Kd (Nter-NPM1 E93A): 5 ± 1.6 µM; Kd (Nter-NPM1 E39A-E93A): 7.6 ± 1.9 µM; Kd (Nter-NPM1 E121A): 13.3 ± 3.8 µM; Kd (Nter-NPM1 E37A): 12.5 ± 1.4 µM; KD 100mM NaCl, D36A-E37A-E39A-E93A-E121A ([4]; sodium phosphate 20 mM plus 100 mM NaCl pH 7.2 (ionic strength 150 mM), 25 °C): No Interaction; Kd (Nter-NPM1 E39A): 6.2 ± 1.5 µM; Kd (Nter-NPM1 D36A-E39A-E93A; sodium phosphate 20 mM plus 100 mM NaCl pH 7.2 (ionic strength 150 mM), 25 °C, read-out: KD 100mM NaCl, D36A-E39A-E93A): 66.8 ± 12.5 µM; Kd ([1]; wild type, sodium phosphate 20 mM plus 100 mM NaCl pH 7.2 (ionic strength 150 mM), 25 °C, dansylated peptide 5 μM, read-out: KD 100mM NaCl, Nter-NPM1): 20.6 ± 2.6 µM; Kd (Nter-NPM1 D36A): 10.8 ± 2.6 µM; Kd (Nter-NPM1 D36A-E93A): 8.4 ± 1.5 µM; Kd (Nter-NPM1 D36A-E39A): 13.5 ± 2 µM
C[C@H](NS(=O)(=O)c1cccc2c(N(C)C)cccc12)C(=O)NCC(=O)N[C@@H](CCCNC(=N)N)C(=O)N[C@@H](CCCCN)C(=O)N[C@@H](CCCCN)C(=O)N[C@@H](CCCNC(=N)N)C(=O)N[C@@H](CCCNC(=N)N)C(=O)N[C@@H](CCC(N)=O)C(=O)N[C@@H](CCCNC(=N)N)C(=O)N[C@@H](CCCNC(=N)N)C(=O)N[C@@H](CCCNC(=N)N)C(=O)N1CCC[C@H]1C(=O)N1CCC[C@H]1C(=O)N[C@@H](CCC(N)=O)C(=O)O [Tat*] | – | 63.8 ± 5 µM | 57.4 ± 7 µM | 643 ± 70.8 µM | 11.1 ± 2.1 µM | 2.4 ± 0.5 µM | –
